Data as given in patent US8598132B2, “Glycosylated indolocarbazoles, method for obtaining same and uses thereof” (Universidad de Oviedo, priority 2008, dated 2013).

Key:
[1] = molecular target: T1, SYK (Homo sapiens, UniProt P43405); experiment: LabChip (Caliper) kinase assay, SYK; type: biochemical; settings: for inhibition at 0.01 µM: compound at 10 nM; for inhibition at 0.01 µM / inhibition at 0.1 µM: read-out: remaining kinase activity (in %) / percentage of inhibition; for inhibition at 0.1 µM: compound at 100 nM; for IC50: ATP at Km, read-out: CI50 (the source's name)
T1 construct: purchased Carna Biosciences
Procedure: (§1) The analysis of kinase activity described here was performed using LabChip (Caliper Life Sciences), specifically the Caliper LC3000 and the EZ Reader II instruments.
(§2) The kinase assay used measures the conversion of a fluorescent peptide (substrate) to a phosphorylated product. The reaction mixture, in a microplate well, is introduced by a capillary in a chip where the non-phosphorylated substrate and the phosphorylated product are separated by […]. The intensity of the fluorescent signal over time is related to the reaction progress. The phosphorylated product migrates quicker than the non-phosphorylated substrate and the signals of the two forms of the peptide appear as differentiated peaks. The Caliper determines the peak height and calculates the ratio of product to the peak sum (P/(P+S)). This value is used to compare wells with compounds and wells with controls and thus determine the % of inhibition for the given product.
(§3) The followings kinases were used for the enzymatic inhibition studies, between brackets the value of the Michaelis-Menten constant, Km, of the ATP (Adenosine triphosphate) for each kinase, in μM: obtained from Carna Biosciences: MAPKAPK2 (4.6), AurA (3.6), AurB (5), PKCζ (3.8), RSK1 (23.3), PRAK (5), Erk1 (33.4), PKD2 (32.1), CK1d (16.3), CHK1 (33), ABL (61.7), FYN (36), LYNa (17), CHK2 (57.8), MET (79.5), LCK (28.5), SRC (38), GSK3β (7.3), Erk2 (62.1), PKACα (1.7), AKT2 (186.1), INSR (871.8), p38a (396.5), AKT1(48), MSK1 (21.2), PKCβ2 (84.8), ROCK2 (3.3), PIM2 (4.9), AMPK (38.6), KDR (164.8), IRAK4 (196.5), SGK1 (121.8), SYK (33.5); obtained from Invitrogen: CDK2 (57.6), BTK (123), HGK (80); obtained from Upstate: MST2 (36.6), PKGα (16), PAK2 (1.9), IGF1R (320), FGFR1 (171), MARK1 (33), CAMK2δ (22.4), c-TAK1 (66), DYRK1a (18.1), CaMK4 (3.9), FLT3 (350), c-Raf (6.2), P70S6K (95).
(§4) The compounds were dissolved in 100% DMSO and were diluted at 25 times the final concentration desired for the assay. In the case of the determination of Cl50, serial dilutions were made to reach eight concentrations and give rise to the inhibition curve. 1 μL of each concentration is transferred, in duplicate to a 384-well microplate. 12 μL of enzymatic buffer is added to each well containing purified kinase (several suppliers as indicated above), 100 mM HEPES, pH 7.5, 1 mM DTT (Calbiochem), 0.002% Brij-35 (Sigma) and also in presence of 10 mM MgCl2 as cofactor, except for INSR and IRAK4 wherein 10 mM MnCl2 is used instead of MgCl2. For the kinases CAMK26 and CAMK4, 1 mM CaCl2 and 6.7 μg/mL of calmodulin are also added. For KDR kinase, 0.05% of the CHAPSO detergent is added. For the c-Raf kinase, 10 mM MnCl2 is added. For PKCβ2 0.02 μg/mL of PS/PMA is added. For PKGα se 10 μM of cGMP (cyclic guanosine monophosphate) is added. The compound and the enzyme are left for 15 minutes preincubation and, then, the following are added to each well: 12 μL of peptide buffer/ATP containing 100 mM HEPES, pH 7.5, 1.5 μM peptide marker with fluorescein (specific for the corresponding kinase), ATP (at concentration KM), and 0.002% Brij-35 to start the reaction. Generally, the reactions are incubated for 1-1.5 h at ambient temperature to obtain an adequate conversion (15-40%) of the peptide to the phosphorylated product. The reactions were ended by the addition of 45 μL of buffer containing 0 mM EDTA. The microplates were read by the LabChip 3000 using a 12-channel LabChip. The P/(P+S) values were obtained as described above and the CI50 curves were generated using XIfit.
(§5) Table 9a has the 0150 data obtained in pairs of compound-kinase selected from the compounds of formula (VII), (VIII), (IX), (XVI), (XVII) and (XVIII) after taking inhibition measurements at 100 nM and 10 nM. Those couples that provide >70% of inhibition at 10 nM were consider for measuring its IC50. […]

[2] = molecular target: T2, Ikkb (Homo sapiens, UniProt O14920); experiment: LabChip (Caliper) kinase assay, Ikkb; type: biochemical; settings: for inhibition at 0.01 µM: compound at 10 nM; for inhibition at 0.01 µM / inhibition at 0.1 µM: read-out: remaining kinase activity (in %) / percentage of inhibition; for inhibition at 0.1 µM: compound at 100 nM; for IC50: ATP at Km, read-out: CI50 (the source's name)
T2 sequence (O14920 1-756): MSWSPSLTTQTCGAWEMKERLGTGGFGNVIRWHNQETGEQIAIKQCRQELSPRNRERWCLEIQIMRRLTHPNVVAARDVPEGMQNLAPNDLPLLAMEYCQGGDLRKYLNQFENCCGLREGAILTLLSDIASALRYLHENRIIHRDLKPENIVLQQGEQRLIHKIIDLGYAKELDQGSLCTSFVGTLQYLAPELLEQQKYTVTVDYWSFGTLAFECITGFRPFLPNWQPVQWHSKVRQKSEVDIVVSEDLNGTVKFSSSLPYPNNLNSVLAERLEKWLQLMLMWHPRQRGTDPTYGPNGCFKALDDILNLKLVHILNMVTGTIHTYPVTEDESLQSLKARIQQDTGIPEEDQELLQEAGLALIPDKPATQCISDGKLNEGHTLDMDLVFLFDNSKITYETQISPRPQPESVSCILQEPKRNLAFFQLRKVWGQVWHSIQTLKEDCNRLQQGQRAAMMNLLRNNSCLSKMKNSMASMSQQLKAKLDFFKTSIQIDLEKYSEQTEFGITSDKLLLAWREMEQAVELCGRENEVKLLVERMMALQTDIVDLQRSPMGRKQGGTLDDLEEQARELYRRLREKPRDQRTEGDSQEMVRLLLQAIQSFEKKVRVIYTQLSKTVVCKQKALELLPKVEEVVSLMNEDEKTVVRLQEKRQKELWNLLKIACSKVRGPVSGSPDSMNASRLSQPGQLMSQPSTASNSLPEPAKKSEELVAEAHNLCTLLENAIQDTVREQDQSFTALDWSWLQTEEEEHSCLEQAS
Procedure: as §1, §2, §3, §4, §5

| SMILES | inhibition at 0.01 µM [1] [%] | inhibition at 0.1 µM [1] [%] | inhibition at 0.01 µM [2] [%] | inhibition at 0.1 µM [2] [%] | IC50 [1] [nM] | IC50 [2] [nM] |
| --- | --- | --- | --- | --- | --- | --- |
| C[C@@H]1O[C@@H](n2c3ccccc3c3c4c(c5c6ccccc6[nH]c5c32)C(=O)NC4=O)[C@H](O)[C@H](O)[C@H]1O [formula (III), N^13-1′-β-L-rhamnosylarcyriaflavin] | 2 | -8 | -10 | 32 | – | – |
| C[C@@H]1O[C@@H](n2c3ccccc3c3c4c(c5c6ccccc6[nH]c5c32)C(=O)NC4=O)C[C@H](O)[C@H]1O [formula (IV), N^13-1′-β-L-olivosylarcyriaflavin] | 11 | 35 | 9 | 60 | – | – |
| C[C@]12O[C@H](C[C@@H](O)[C@H]1O)n1c3ccccc3c3c4c(c5c6ccccc6n2c5c31)C(=O)NC4=O [formula (IX), N^12-5′(S)-N^13-1′-(R)-L-digitoxosylarcyriaflavin] | – | – | – | – | 2.3 | > 10 |
| C[C@@H]1O[C@@H](n2c3ccccc3c3c4c(c5c6ccccc6[nH]c5c32)C(=O)NC4=O)C[C@@H](O)[C@H]1O [formula (V), N^13-1′-β-L-digitoxosylarcyriaflavin] | 13 | 24 | 37 | 76 | – | – |
| C[C@H]1O[C@@H](n2c3ccccc3c3c4c(c5c6ccccc6[nH]c5c32)C(=O)NC4=O)C[C@@H](O)[C@@H]1O [formula (VI), N^13-1′-β-D-olivosylarcyriaflavin] | 5 | 31 | 7 | 50 | – | – |
| C[C@]12O[C@H]([C@H](O)[C@H](O)[C@H]1O)n1c3ccccc3c3c4c(c5c6ccccc6n2c5c31)C(=O)NC4=O [formula (VII), N^12-5′(S)-N^13-1′-(R)-L-rhamnosylarcyriaflavin] | – | – | – | – | 1 | 0.17 |
| C[C@]12O[C@H](C[C@H](O)[C@H]1O)n1c3ccccc3c3c4c(c5c6ccccc6n2c5c31)C(=O)NC4=O [formula (VIII), N^12-5′(S)-N^13-1′-(R)-L-olivosylarcyriaflavin] | – | – | – | – | 1.1 | < 0.03 |
| C[C@@H]1O[C@@H](n2c3ccccc3c3c4c(c5c6ccccc6[nH]c5c32)CNC4=O)[C@H](O)[C@H](O)[C@H]1O [formula (XII), N^13-1′-β-L-rhamnosyl-k252c] | 8 | 10 | -5 | 12 | – | – |
| C[C@@H]1O[C@@H](n2c3ccccc3c3c4c(c5c6ccccc6[nH]c5c32)CNC4=O)C[C@H](O)[C@H]1O [formula (XIII), N^13-1′-β-L-olivosyl-k252c] | 12 | 30 | -5 | 33 | – | – |
| C[C@@H]1O[C@@H](n2c3ccccc3c3c4c(c5c6ccccc6[nH]c5c32)CNC4=O)C[C@@H](O)[C@H]1O [formula (XIV), N^13-1′-β-L-digitoxosyl-k252c] | -1 | 11 | 27 | 24 | – | – |
| C[C@H]1O[C@@H](n2c3ccccc3c3c4c(c5c6ccccc6[nH]c5c32)CNC4=O)C[C@@H](O)[C@@H]1O [formula (XV), N^13-1′-β-D-olivosyl-k252c] | 7 | 29 | -5 | 16 | – | – |
| C[C@]12O[C@H](C[C@@H](O)[C@H]1O)n1c3ccccc3c3c4c(c5c6ccccc6n2c5c31)CNC4=O [formula (XVIII), N^12-5′(S)-N^13-1′-(R)-L-digitoxosyl-k252c] | – | – | – | – | > 10 | > 100 |
